# Measured values as given in ChEMBL document CHEMBL1137464, “Novel steroidal saponins, Sch 725737 and Sch 725739, from a marine starfish, Novodinia antillensis” (Bioorg Med Chem Lett, 2007).
# What was measured:
# [1] = target: T1, Sodium channel protein type 10 subunit alpha (Homo sapiens, UniProt Q9Y5Y9); assay: Inhibition of sodium channel NaV1.8 expressed in rat ND7/23 cells by FLIPR assay; assay type: cell-based
# Target sequence in this assay (Q9Y5Y9 whole entry): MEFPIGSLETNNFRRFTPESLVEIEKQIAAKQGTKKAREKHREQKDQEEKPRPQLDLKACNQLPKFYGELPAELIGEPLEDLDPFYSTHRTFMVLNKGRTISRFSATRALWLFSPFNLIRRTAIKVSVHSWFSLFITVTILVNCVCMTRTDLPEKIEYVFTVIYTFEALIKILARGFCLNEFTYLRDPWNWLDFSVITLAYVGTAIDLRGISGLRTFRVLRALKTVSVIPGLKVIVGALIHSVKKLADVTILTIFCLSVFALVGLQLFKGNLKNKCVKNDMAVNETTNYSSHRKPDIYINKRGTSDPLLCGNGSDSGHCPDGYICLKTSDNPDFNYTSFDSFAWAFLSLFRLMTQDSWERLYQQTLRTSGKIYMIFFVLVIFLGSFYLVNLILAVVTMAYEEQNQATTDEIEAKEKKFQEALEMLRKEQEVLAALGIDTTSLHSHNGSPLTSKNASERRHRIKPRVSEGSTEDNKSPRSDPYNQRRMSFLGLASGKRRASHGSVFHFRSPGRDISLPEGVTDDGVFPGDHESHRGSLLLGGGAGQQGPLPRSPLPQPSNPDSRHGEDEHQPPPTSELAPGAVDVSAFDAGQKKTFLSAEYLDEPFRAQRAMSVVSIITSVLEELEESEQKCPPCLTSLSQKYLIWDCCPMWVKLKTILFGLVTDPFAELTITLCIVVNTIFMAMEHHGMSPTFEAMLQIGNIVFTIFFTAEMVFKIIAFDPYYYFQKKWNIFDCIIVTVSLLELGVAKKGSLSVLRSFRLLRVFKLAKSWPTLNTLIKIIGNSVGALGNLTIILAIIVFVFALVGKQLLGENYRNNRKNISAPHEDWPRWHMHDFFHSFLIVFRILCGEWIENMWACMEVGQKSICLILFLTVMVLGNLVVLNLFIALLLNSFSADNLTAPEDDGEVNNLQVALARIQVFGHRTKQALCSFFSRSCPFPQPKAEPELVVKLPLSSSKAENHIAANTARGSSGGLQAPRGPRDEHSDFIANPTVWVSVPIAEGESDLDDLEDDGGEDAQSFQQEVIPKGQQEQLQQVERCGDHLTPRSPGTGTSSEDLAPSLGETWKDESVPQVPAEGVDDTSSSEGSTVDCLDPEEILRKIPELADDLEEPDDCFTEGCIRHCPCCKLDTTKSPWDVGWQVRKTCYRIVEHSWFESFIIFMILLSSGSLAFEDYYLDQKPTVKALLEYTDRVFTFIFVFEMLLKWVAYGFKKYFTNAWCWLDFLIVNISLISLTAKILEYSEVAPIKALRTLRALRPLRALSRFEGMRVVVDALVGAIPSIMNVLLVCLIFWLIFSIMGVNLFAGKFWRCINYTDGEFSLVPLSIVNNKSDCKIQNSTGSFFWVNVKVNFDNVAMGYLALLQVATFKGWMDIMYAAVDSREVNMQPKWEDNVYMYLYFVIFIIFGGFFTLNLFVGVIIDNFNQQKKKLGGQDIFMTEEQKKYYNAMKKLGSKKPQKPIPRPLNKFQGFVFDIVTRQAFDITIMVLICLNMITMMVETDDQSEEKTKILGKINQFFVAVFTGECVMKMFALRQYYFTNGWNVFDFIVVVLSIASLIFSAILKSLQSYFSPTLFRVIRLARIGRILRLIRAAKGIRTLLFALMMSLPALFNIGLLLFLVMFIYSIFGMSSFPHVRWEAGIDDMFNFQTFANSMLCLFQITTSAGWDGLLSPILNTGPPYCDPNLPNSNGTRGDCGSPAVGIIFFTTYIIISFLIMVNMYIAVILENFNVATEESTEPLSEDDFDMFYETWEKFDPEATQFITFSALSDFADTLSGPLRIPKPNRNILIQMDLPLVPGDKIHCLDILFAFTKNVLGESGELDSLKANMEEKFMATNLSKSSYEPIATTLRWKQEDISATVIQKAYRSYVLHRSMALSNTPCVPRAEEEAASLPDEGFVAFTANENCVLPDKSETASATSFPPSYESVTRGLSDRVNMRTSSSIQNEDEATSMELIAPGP
# [2] = target: T1, Sodium channel protein type 10 subunit alpha; assay: Inhibition of sodium channel NaV1.8 at 20 ug/mL by HTS assay
# Target sequence in this assay (Q9Y5Y9 whole entry, looked up): as the sequence (Q9Y5Y9 whole entry) above
Compound,IC50 [1] [µM],inhibition [2] [%]
CC(C)CCC[C@@](C)(O)[C@H]1CC[C@H]2[C@@H]3C[C@H](O[C@@H]4O[C@H](C)[C@@H](O)[C@H](O[C@@H]5OC[C@@H](O[C@@H]6O[C@H](C)[C@@H](O[C@@H]7OC[C@H](O)[C@H](O)[C@H]7O)[C@H](O)[C@H]6O[C@@H]6O[C@H](C)[C@H](O)[C@H](O)[C@H]6O)[C@H](O)[C@H]5O[C@@H]5O[C@H](C)[C@@H](O)[C@H](O)[C@H]5O)[C@H]4O)[C@H]4C[C@@H](OS(=O)(=O)O)CC[C@]4(C)C3=CC[C@@]21C,9,88
CC(C)CCC[C@@](C)(O)[C@H]1CC[C@H]2[C@@H]3C[C@H](O[C@@H]4O[C@H](C)[C@@H](O)[C@H](O[C@@H]5O[C@H](C)[C@@H](O[C@@H]6O[C@H](C)[C@@H](O[C@@H]7OC[C@H](O)[C@H](O)[C@H]7O)[C@H](O)[C@H]6O[C@@H]6O[C@H](C)[C@H](O)[C@H](O)[C@H]6O)[C@H](O)[C@H]5O[C@@H]5O[C@H](C)[C@@H](O)[C@H](O)[C@H]5O)[C@H]4O)[C@H]4C[C@@H](OS(=O)(=O)O)CC[C@]4(C)C3=CC[C@@]21C,–,88
